Molecular target: T1, PPARγ (Homo sapiens, UniProt P37231)
T1 construct: made in house
T1 sequence (P37231 1-505): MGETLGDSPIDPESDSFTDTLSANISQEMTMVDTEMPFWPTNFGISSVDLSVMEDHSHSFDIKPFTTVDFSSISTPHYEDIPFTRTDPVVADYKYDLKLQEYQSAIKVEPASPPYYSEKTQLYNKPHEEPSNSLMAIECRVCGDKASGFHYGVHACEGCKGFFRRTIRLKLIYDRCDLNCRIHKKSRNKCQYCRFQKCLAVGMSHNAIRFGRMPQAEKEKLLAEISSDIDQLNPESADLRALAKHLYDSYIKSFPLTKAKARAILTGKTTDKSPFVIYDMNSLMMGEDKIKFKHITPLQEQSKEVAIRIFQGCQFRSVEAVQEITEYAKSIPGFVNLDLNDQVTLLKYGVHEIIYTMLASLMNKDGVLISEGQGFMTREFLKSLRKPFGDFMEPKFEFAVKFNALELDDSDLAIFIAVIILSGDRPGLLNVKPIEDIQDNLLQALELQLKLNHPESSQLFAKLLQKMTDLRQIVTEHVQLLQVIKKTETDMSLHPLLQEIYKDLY
Test: PPARγ ligand binding assay utilizing [3H]-BRL 49653 as the radioligand (filtration)
Conditions: concentration required to reduce by 50% the specific binding of [3H]-BRL 49653
From the text: The compounds of the present invention can be evaluated for modulation of the PPARγ receptor using assays such as those described in Jiang, et al., Nature 391:82-86 (1998), Ricote, et al., Nature 391:79-82 (1998) and Lehmann, et al., J. Biol. Chem. 270(12): 12953-12956 (1995). Alternatively, the compounds can be evaluated for their ability to displace radiolabeled BRL 49653 from a PPARγ-GST fusion protein as follows:
PPARγ-GST fusion protein (prepared according to standard procedures), [^3H]-BRL 49653 having 50 Ci/mmol specific activity, Polyfiltronics Unifilter 350 filtration plate and glutathione-Sepharose® beads (from Pharmacia: washed twice with 10× binding buffer in which BSA and DTI can be left out).
Binding buffer (10 mM Tris-HCl, pH 8.0, 50 mM KCl, 10 mM DTT, 0.02% BSA and 0.0 1% NP-40) is added in 80-μL amounts to the wells of the filtration plate. The test compound is then added in 10 μL of DMSO. The PPARγ-GST fusion protein and radiolabeled BRL compound are premixed in binding buffer containing 10 mM DTT and added in 10-μL amounts to the wells of the plate to provide final concentrations of 1 µg/well of PPARγ-GST fusion protein and 10 nM [^3H]-BRL 49653 compound. The plate is incubated for 15 min. Glutathione-agarose bead is added in 50 μL of binding buffer, and the plate is vigorously shaken for one hour. The plate is washed four times with 200 μL/well of binding buffer (without BSA and DTT). The bottom of the plate is sealed and 200 μL/well of scintillation cocktail is added. The top of the plate is then sealed and the radioactivity is determined.
IC50 values are defined as the concentration of test compounds required to reduce by 50% the specific binding of [^3H]-BRL 49653 and are represented by (+)<30 μM; (++)<10 μM; (+++)<1 μM.

SMILES	IC50 [µM]
CC(C)Nc1nc(NS(=O)(=O)c2ccc(Cl)cc2Cl)ncc1Sc1ccc(S(=O)(=O)N2CCCCC2)cc1 [Compound 17, 2,4-Dichloro-N-{4-isopropylamino-5-[4-(piperidine-1-sulfonyl)-phenylsulfanyl]-pyrimidin-2-yl}-benzenesulfonamide]	< 10
CCC(CC)Nc1nc(NS(=O)(=O)c2ccc(Cl)cc2Cl)ncc1Sc1ccc(S(=O)(=O)N2CCCCC2)cc1 [Compound 18, 2,4-Dichloro-N-{4-(1-ethyl-propylamino)-5-[4-(piperidine-1-sulfonyl)-phenylsulfanyl]-pyrimidin-2-yl}-benzenesulfonamide]	< 30
CC(C)CCNc1nc(NS(=O)(=O)c2ccc(Cl)cc2Cl)ncc1Sc1ccc(S(=O)(=O)N2CCCCC2)cc1 [Compound 21, 2,4-Dichloro-N-{4-(3-methyl-butylamino)-5-[4-(piperidine-1-sulfonyl)-phenylsulfanyl]-pyrimidin-2-yl}-benzenesulfonamide]	< 10
CCCNc1nc(NS(=O)(=O)c2ccc(OC)cc2)ncc1Sc1ccc(S(=O)(=O)N2CCCCC2)cc1 [Compound 23, 4-Methoxy-N-{5-[4-(piperidine-1-sulfonyl)-phenylsulfanyl]-4-propylamino-pyrimidin-2-yl}-benzenesulfonamide]	< 10
CCCNc1nc(NS(=O)(=O)c2ccc(Cl)cc2)ncc1Oc1ccc(S(=O)(=O)N2CCOCC2)cc1 [Compound 24, 4-Chloro-N-{5-[4-(morpholine-4-sulfonyl)-phenoxy]-4-propylamino-pyrimidin-2-yl}-benzenesulfonamide]	< 10
CNc1nc(NS(=O)(=O)c2ccc(Cl)cc2Cl)ncc1Sc1ccc2ccccc2c1 [Compound 25, 2,4-Dichloro-N-[4-methylamino-5-(naphthalen-2-ylsulfanyl) -pyrimidin-2-yl]-benzenesulfonamide]	< 30
CN(C)c1nc(NS(=O)(=O)c2ccc(Cl)cc2Cl)ncc1Sc1ccc2ccccc2c1 [Compound 26, 2,4-Dichloro-N-[4-dimethylamino-5-(naphthalen-2-ylsulfanyl) -pyrimidin-2-yl]-benzenesulfonamide]	< 30
CCCNc1nc(NS(=O)(=O)c2ccc(Cl)cc2Cl)ncc1Oc1ccc(Cl)c(Cl)c1 [Compound 27, 2,4-Dichloro-N-[5-(3,4-dichloro-phenoxy)-4-propylamino-pyrimidin-2-yl]-benzenesulfonamide]	< 10
CCCOc1nc(NS(=O)(=O)c2ccc(Cl)cc2)ncc1Oc1ccc(S(=O)(=O)N2CCOCC2)cc1 [Compound 29, 4-Chloro-N-{5-[4-(morpholine-4-sulfonyl)-phenoxy]-4-propoxy-pyrimidin-2-yl}-benzenesulfonamide]	< 10
COc1nc(NS(=O)(=O)c2ccc(Cl)cc2Cl)ncc1Sc1ccc2ccccc2c1 [Compound 30, 2,4-Dichloro-N-[4-methoxy-5-(naphthalen-2-ylsulfanyl)-pyrimidin-2-yl]-benzenesulfonamide]	< 10
CCCOc1nc(NS(=O)(=O)c2ccc(Cl)cc2Cl)ncc1Oc1ccc(Cl)c(Cl)c1 [Compound 31, 2,4-Dichloro-N-[5-(3,4-dichloro-phenoxy)-4-propoxy-pyrimidin-2-yl]-benzenesulfonamide]	< 10

The remaining lines, values ahead:

IC50 [µM]	SMILES
< 1	CCCNc1nc(NS(=O)(=O)c2ccc(Cl)cc2Cl)ncc1Sc1ccc(S(=O)(=O)N2CCCCC2)cc1 [Compound 12, 2,4-Dichloro-N-{5-[4-(piperidine-1-sulfonyl)-phenylsulfanyl]-4-propylamino-pyrimidin-2-yl}-benzenesulfonamide]
< 1	CCNc1nc(NS(=O)(=O)c2ccc(Cl)cc2Cl)ncc1Sc1ccc(S(=O)(=O)N2CCCCC2)cc1 [Compound 13, 2,4-Dichloro-N-{4-ethylamino-5-[4-(piperidine-1-sulfonyl) -phenylsulfanyl]-pyrimidin-2-yl}-benzenesulfonamide]
< 1	CCCCNc1nc(NS(=O)(=O)c2ccc(Cl)cc2Cl)ncc1Sc1ccc(S(=O)(=O)N2CCCCC2)cc1 [Compound 14, N-{4-Butylamino-5-[4-(piperidine-1-sulfonyl)-phenylsulfanyl]-pyrimidin-2-yl}-2,4-dichloro-benzenesulfonamide]
< 1	CCCN(C)c1nc(NS(=O)(=O)c2ccc(Cl)cc2Cl)ncc1Sc1ccc(S(=O)(=O)N2CCCCC2)cc1 [Compound 15, 2,4-Dichloro-N-{4-(methyl-propyl-amino)-5-[4-(piperidine-1-sulfonyl)-phenylsulfanyl]-pyrimidin-2-yl}-benzenesulfonamide]
< 1	COCCNc1nc(NS(=O)(=O)c2ccc(Cl)cc2Cl)ncc1Sc1ccc(S(=O)(=O)N2CCCCC2)cc1 [Compound 16, 2,4-Dichloro-N-{4-(2-methoxy-ethylamino)-5-[4-(piperidine-1-sulfonyl)-phenylsulfanyl]-pyrimidin-2-yl}-benzenesulfonamide]
< 1	O=S(=O)(Nc1ncc(Sc2ccc(S(=O)(=O)N3CCCCC3)cc2)c(NCC2CC2)n1)c1ccc(Cl)cc1Cl [Compound 19, 2,4-Dichloro-N-{4-(cyclopropylmethyl-amino)-5-[4-(piperidine-1-sulfonyl)-phenylsulfanyl]-pyrimidin-2-yl}-benzenesulfonamide]
< 1	CC(C)CNc1nc(NS(=O)(=O)c2ccc(Cl)cc2Cl)ncc1Sc1ccc(S(=O)(=O)N2CCCCC2)cc1 [Compound 20, 2,4-Dichloro-N-{4-isobutylamino-5-[4-(piperidine-1-sulfonyl)-phenylsulfanyl]-pyrimidin-2-yl}-benzenesulfonamide]
< 1	CCCNc1nc(NS(=O)(=O)c2ccc(Cl)cc2)ncc1Sc1ccc(S(=O)(=O)N2CCCCC2)cc1 [Compound 22, 4-Chloro-N-{5-[4-(piperidine-1-sulfonyl)-phenylsulfanyl]-4-propylamino-pyrimidin-2-yl}-benzenesulfonamide]
< 1	CCCOc1nc(NS(=O)(=O)c2ccc(Cl)cc2Cl)ncc1Sc1ccc(S(=O)(=O)N2CCCCC2)cc1 [Compound 28, 2,4-Dichloro-N-{5-[4-(piperidine-1-sulfonyl)-phenylsulfanyl]-4-propoxy-pyrimidin-2-yl}-benzenesulfonamide]
< 1	CCCSc1nc(NS(=O)(=O)c2ccc(Cl)cc2Cl)ncc1Sc1ccc(S(=O)(=O)N2CCCCC2)cc1 [Compound 32, 2,4-Dichloro-N-{5-[4-(piperidine-1-sulfonyl)-phenylsulfanyl]-4-propylsulfanyl-pyrimidin-2-yl}-benzenesulfonamide]
< 1	CCCCc1nc(NS(=O)(=O)c2ccc(Cl)cc2Cl)ncc1Sc1ccc(S(=O)(=O)N2CCCCC2)cc1 [Compound 43, N-{4-Butyl-5-[4-(piperidine-1-sulfonyl)-phenylsulfanyl]-pyrimidin-2-yl}-2,4-dichloro-benzenesulfonamide]
< 1	CCCCc1nc(NS(=O)(=O)c2ccc(Cl)cc2)ncc1Sc1ccc(S(=O)(=O)N2CCCCC2)cc1 [Compound 44, N-{4-Butyl-5-[4-(piperidine-1-sulfonyl)-phenylsulfanyl]-pyrimidin-2-yl}-4-chloro-benzenesulfonamide]
< 1	CCCCc1nc(NS(=O)(=O)c2ccc(OC)cc2)ncc1Sc1ccc(S(=O)(=O)N2CCCCC2)cc1 [Compound 45, N-{4-Butyl-5-[4-(piperidine-1-sulfonyl)-phenylsulfanyl]-pyrimidin-2-yl}-4-methoxy-benzenesulfonamide]
< 1	CCCCc1nc(NS(=O)(=O)c2ccc(C(F)(F)F)cc2Cl)ncc1Sc1ccc(S(=O)(=O)N2CCCCC2)cc1 [Compound 46, N-{4-Butyl-5-[4-(piperidine-1-sulfonyl)-phenylsulfanyl]-pyrimidin-2-yl}-2-chloro-4-trifluoromethyl-benzenesulfonamide]
< 1	CCCCCc1nc(NS(=O)(=O)c2ccc(Cl)cc2Cl)ncc1Sc1ccc(S(=O)(=O)N2CCCCC2)cc1 [Compound 47, 2,4-Dichloro-N-{4-pentyl-5-[4-(piperidine-1-sulfonyl) -phenylsulfanyl]-pyrimidin-2-yl}-benzenesulfonamide]

Source: US7893077B2, “Bisaryl-sulfonamides” (Amgen Inc., priority 2004, dated 2011)
